Here are results for four compounds from publication PMC6085350, “Small molecule inhibitors of RAS-effector protein interactions derived using an intracellular antibody fragment” (Nature Communications, 2018).

Structures are written as SMILES. Where “and” joins values, the source holds several entries; their conditions need not be identical. Equal values may be shown once. Entries after “also recorded” stand apart in the source; their conditions may differ. Read-outs that look alike come from different tables or passages of the source.

One assay deals with HT1080 cells (NRAS^Q61K). The experiment in a line: Cell viability (CellTiterGlo), HT1080. The conditions noted are these: for effect on cell viability: HT1080, 0–20 μM, up to 72 h; for IC50: Homo sapiens, HT-1080. The class given is cell-based, human. The method, then: (§1) Fig. 5 Abd-7 results on RAS-dependent signalling pathways and cell viability. a, b DLD-1 (a) or H358 (b) cells were serum-starved for 24 h, incubated in mono-layer with Abd-7 in a range from 2, 5, 10 and 20 μM for 3 h and stimulated with EGF 10 min. Proteins were extracted and separated by SDS-PAGE and transferred to membranes for Western analysis with anti-pAKT, anti-pERK, anti-pan AKT and anti-pan ERK. Anti-cyclophilin B antibody was the loading control. Signal was developed using standard ECL. c–e Effects of compounds Abd-2, Abd-4, Abd-5, Abd-6, and Abd-7 on the viability of human cancer cells lines was assessed for a 2-D culture of DLD-1 (mutant KRAS^G13D) cells and HT1080 cells (mutant NRAS^Q61K). The cells were treated with a dose range from 0 μM to 20 μ and incubated for 72 h when cell viability was assessed using CellTitreGlo. […] Each experiment was repeated at least three times (a, b) and four times (c, d). Where error bars are presented, they correspond to mean values ± SD of biological repeats […]
(§2) Cancer cell lines were in seeded in ViewPlates-96 microplates (PerkinElmer). DLD-1 cells were plated at 10,000 cells per well and HT1080 cells at 7500 cells per well and cultured in DMEM, high glucose, GlutaMAX media containing 10% FBS at 37 °C in 5% CO2 atmosphere. Cells were cultured overnight and the compounds (dissolved in DMSO and diluted to 0.2% DMSO) were added to the cells at concentrations ranging from 0 to 20 μM. The cells were incubated under standard culture conditions for either 24, 48 or 72 h. Cell viability was as quantitated using the CellTiterGlo Luminescent Cell Viability Assay (Promega) according to the manufacturer’s instructions to measure ATP generated by metabolically active cells. Luminescent signals were measured using an Envision 2103 Multilabel Microplate Reader (PerkinElmer). The luminescence signals obtained from the compound-treated cells were normalized against the signal for DMSO-only treated cells. The IC50 values, calculated from the 48 and 72 h CellTiterGlo data, were generated by non-linear regression using the software GraphPad Prism 7.00 for windows (GraphPad Inc).
(§3) Supplementary Figure 7: The effect of Abd compounds on the viability of cancer cells The effect of the chemical series on the viability of human cancer cells lines DLD -1 (a colorectal cancer cell line with mutant KRAS
(§4) ) and HT1080 (a fibrosarcoma cell line with
(§5) ). The cells were treated with a dose range from […] of either
(§6) Abd-2, Abd-4, Abd-5, Abd-6 and Abd-7 and incubated for 24 or 48 hours. Cell viability was assessed using CellTitreGlo . In each case, the data are normalized to cells treated with DMSO only. Panels a and b are DLD-1 viability and panels c and d are HT1080 viability.
(§7) The IC50 for Abd-7 at 48 & 72 […]
(§8) hours are shown in panel f. Each experiment was repeated at least four times ( a to d).
(§9) Where error bars are presented, they correspond to mean values ± SD of biological repeats.
(§10) (1 picture or pasted object on this page, not shown here)
On the technique in general: ATP-based viability assays read luminescence as a measure of living cells.

A further assay relates to DLD-1 cells (KRAS^G13D). The experiment in a line: Cell viability (CellTiterGlo), DLD-1. Type of assay: cell-based, human. As to conditions: for effect on cell viability: DLD-1, 0–20 μM, up to 72 h; for IC50: Homo sapiens. The method, then: as §1, §2, §3, §4, §5, §6, §7, §8, §9, §10
Another assay concerns the target T1, GST-KRASG12V-GppNHp (Homo sapiens, UniProt P01116, G12V).
T1 construct: made in house; host or cells: E. coli (pGEX-2T; strain named only for the HRAS plasmids)
The experiment in a line: 1H CPMG NMR protein titration for Kd. The class given is binding. The conditions noted are these: for Kd: CPMG NMR titration, 55 μM compound, read-out: Kd (binding affinity). Here is the method:
Typical experimental parameters for Carr–Purcell-Meiboom-Gill (CPMG) NMR spectroscopy were the following: total echo time, 40 ms; relaxation delay, 2 s; and number of transients, […][53]. The PROJECT-CPMG sequence (90°x-[Ƭ-180°y-Ƭ- 90°y-Ƭ-180°y-Ƭ]n-acq) was applied. Water suppression was achieved by pre-saturation. Prior to Fourier transformation, the data were multiplied with an exponential function with 3-Hz line broadening. The CPMG experiments were conducted at a ^1H frequency of 700 MHz using a Bruker Avance with 5 mm inverse TCI 1 H/13 C/15 N cryo-probe. All experiments were conducted at 298 K and lapsed 128 scans. Furthermore, 3 mm diameter NMR tubes with a sample volume of 200 µl were used in all experiments. Solutions were buffered using a D2O PBS buffer corrected to pH 7.4. The sample preparation is exemplified as follow: with 5 µM of protein (PBS pH 7.4, 5 mM MgCl2), the compound (1.1 µl of a 10 mM (55 uM) solution in DMSO-d6) was added to an eppendorf before sequential addition of the D2O 10 mM PBS, 5 mM MgCl2 buffer adjusted to pH 7.4 (194.0 µl) and protein (4.9 µl, 205 µM, the protein is in an H2O-based buffer for stability reason). The resulting solution was vortexed to be fully mixed and transferred to a 3 mm NMR tube before the run. Negative controls (compound alone, without the protein) were prepared in a similar manner, in order to obtain an end volume of 200 µl. CPMG protein titration experiments were carried out at a fixed compound concentration and a variable protein concentration. It was estimated that 55 μM solution of the compound was optimum for a good CPMG; protein was titrate increasingly from 0 µM until the signal of the compound was undetected in the proton NMR. The integrations of the protons acquired were compared to the reference (compound alone, 0 µM of protein) in order to obtain a percentage of decrease for each concentration of protein. Three different proton signals were used and a mean was calculated for each run. Each protein concentration was run in triplicate and a mean was calculated for each concentration. Where error bars are presented, they correspond to mean values ± SD of experimental repeats. Concentration and percentage of decrease were plotted and Kd fitting was run on the generated curve using Origin® with the following function: A*(1/(2*C))*((B + x + C)-sqrt(((B + x + C)^2)-(4*x*C))) where A is the maximum % of inhibition (i.e. 100), B is the Kd and C is the concentration of the compound which should not be fixed in the Origin® Equation due to potential variations in compound solubility.
Supplementary Figure 6: Abd-7 Binding in WaterLOGSy and Kd calculations in CPMG WaterLOGSY and CPMG NMR orthogonal analysis of Abd-5 (panel a, b), Abd-6 (c, d), and Abd-7 (e, f) with GST-KRASG12V-GppNHp. For each waterLOGSY profile, the proton NMR spectrum of the compound is shown together the spectra of the compound after incubation with the KRAS (the NOE transfers occurs when the compounds displace those waters upon binding to the protein). The Kd of interaction of the compounds come from fitting a binding curve (right of panels b, d, f) of a CPMG titration (shown on the left of panels b, d, f). The calculated Kd is shown for each compound.
(MW), Kd, Solubility and ligand efficiency (LE). Each experiment was repeated at least three times. Where error bars are presented, they correspond to mean values ± SD of experimental repeats (b, d and f).

As for `O=C(NCC1COc2ccccc2O1)c1ccco1` (stereo not drawn) [Abd-2], the “effect on cell viability” value in the assay with HT1080 cells (NRAS^Q61K) and in the assay with DLD-1 cells (KRAS^G13D) was “no effect on cell viability; also recorded: had not effect” in each case.
For the compound `COc1cccc(-c2cccc3c2OC(CNC(=O)c2ccc(OCCN(C)C)cc2)CO3)n1` (stereo not drawn) [Abd-5], at GST-KRASG12V-GppNHp, the ligand efficiency was about 0.3. Besides, at GST-KRASG12V-GppNHp, the Kd worked out at 220 nM. The “effect on cell viability” value in the assay on HT1080 cells (NRAS^Q61K) and in the assay with DLD-1 cells (KRAS^G13D) was “have an effect on the viability” each time.
Turning to `COc1nc(-c2cccc3c2O[C@H](CNC(=O)C2CCOCC2)CO3)ccc1Nc1cccc(CN(C)C)c1` [Abd-6], the ligand efficiency on GST-KRASG12V-GppNHp is given as about 0.3. Besides, the dissociation constant (Kd) on GST-KRASG12V-GppNHp was 38 nM. Further, the “effect on cell viability” value with HT1080 cells (NRAS^Q61K) and in the assay on DLD-1 cells (KRAS^G13D) was “have an effect on the viability” throughout.
Turning to `COc1nc(-c2cccc3c2OCCO3)ccc1Nc1ccc(CN(C)C)cc1` [Abd-7], the ligand efficiency at GST-KRASG12V-GppNHp is ~0.3 and 0.34. At GST-KRASG12V-GppNHp, the Kd was 51 nM. The IC50 is 9.4 µM in the assay with HT1080 cells (NRAS^Q61K) (HT1080, 48 h, Supplementary Fig. 7f, read-out: HT1080 IC50 48h); about 10 µM in the assay with HT1080 cells (NRAS^Q61K) (HT1080, 48 h as printed in discussion, read-out: IC50 cell viability); 10 µM in the assay with HT1080 cells (NRAS^Q61K) (HT1080, 72 h, read-out: IC50 cell viability); 8 µM with DLD-1 cells (KRAS^G13D) (DLD-1, 72 h, read-out: IC50 cell viability); 9.8 µM in the assay with DLD-1 cells (KRAS^G13D) (DLD-1, 48 h, Supplementary Fig. 7f, read-out: DLD-1 IC50 48h); about 8 µM in the assay with DLD-1 cells (KRAS^G13D) (DLD-1, 48 h as printed in discussion, read-out: IC50 cell viability).

As a reminder, the Kd is the free concentration of one partner at which half of the binding sites on the other are occupied at equilibrium, for simple one-to-one binding. What is called IC50 is the midpoint of a concentration-inhibition curve.
